The record followed here is the supplement of paper PMC7108870.

The subject of assay [1] is HEK293sieSTAT3(Y640F). Nature of the assay: drug sensitivity score (DSS), cytotoxicity CellTox Green (DSS (dimensionless)); higher = more cytotoxic; extreme values may be limits of the assay. To be noted: 72 h; STAT3 variant: Y640F (constitutively active). A digest of the protocol: (§1)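 HEK293 cells with a STAT3-dependent luciferase reporter, overexpressing either wild-type or mutant STAT3, were dispensed (20 μl at 100,000 cells/ml) into 384-well plates holding compounds acoustically pre-plated at 5 concentrations in 10-fold dilutions. The plates were kept for 72 hours at 37°C and 5% CO2, then CellTox Green fluorescence (485/520 nm) followed by CellTiter-Glo luminescence was read on a PHERAstar FS. Breeze was used to compute a drug sensitivity score from the dose-response curve area after normalisation to negative and positive control wells, and each value comes from one representative of two experiments.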

For assay [2], the system named is HEK293sieSTAT3(wt). The description is as above. To be noted: 72 h; STAT3 variant: wild type. A digest of the protocol: as §1
Assay [3] concerns HEK293sieSTAT3(Y640F). Nature of the assay: drug sensitivity score (DSS), viability CellTiter-Glo (DSS (dimensionless)); higher = more growth inhibition; extreme values may be limits of the assay. To be noted: 72 h; STAT3 variant: Y640F (constitutively active). Summed up: as §1
On the technique in general: Cellular ATP, detected with luciferase, serves as a proxy for viable cell number.

For assay [4], the system named is HEK293sieSTAT3(wt). The assay is described as above. To be noted: 72 h; STAT3 variant: wild type. A digest of the protocol:
as §1

For the compound `Nc1ccn([C@@H]2O[C@H](CO)[C@@H](O)[C@@H]2O)c(=O)n1` [Cytarabine] (top concentration tested 10000 nM), the drug sensitivity score in the assay on HEK293sieSTAT3(Y640F) [1] was 0.18; in the assay with HEK293sieSTAT3(wt) [2], 1.75; with HEK293sieSTAT3(Y640F) [3], 8.82; in the assay on HEK293sieSTAT3(wt) [4] it was 13.3.
As for `CCC1=C[C@@H]2CN(C1)Cc1c([nH]c3ccccc13)[C@@](C(=O)OC)(c1cc3c(cc1OC)N(C)[C@H]1[C@@](O)(C(=O)OC)[C@H](OC(C)=O)[C@]4(CC)C=CCN5CC[C@]31[C@@H]54)C2` [Vinorelbine] (top concentration tested 10000 nM), the drug sensitivity score stood at 5.27 in the assay with HEK293sieSTAT3(Y640F) [1], 19.2 in the assay with HEK293sieSTAT3(wt) [2], 30.6 in the assay on HEK293sieSTAT3(Y640F) [3] and 34 in the assay with HEK293sieSTAT3(wt) [4].
The like results for `O=C(NOC[C@H](O)CO)c1ccc(F)c(F)c1Nc1ccc(I)cc1F` (top concentration tested 1000 nM) were, in that order, 0, 0, 0 and 0.
The like results for `O=C(c1ccc(OCCN2CCCCC2)cc1)c1c(-c2ccc(O)cc2)sc2cc(O)ccc12` [Raloxifene] (top concentration tested 10000 nM) were, in that order, 0, 6.26, 3.8 and 5.05.
`c1cn2cc(-c3ccc4cn[nH]c4c3)nc(Nc3ccc(N4CCOCC4)cc3)c2n1` [Entospletinib] (top concentration tested 5000 nM): the drug sensitivity score in the assay on HEK293sieSTAT3(Y640F) [1], in the assay on HEK293sieSTAT3(wt) [2], in the assay with HEK293sieSTAT3(Y640F) [3] and with HEK293sieSTAT3(wt) [4] was 0 each time.
For the compound `CC(C)Cn1cnc2c(N)nc3ccccc3c21` [Imiquimod] (top concentration tested 2500 nM), the drug sensitivity score is 0 in the assay on HEK293sieSTAT3(Y640F) [1], 0 with HEK293sieSTAT3(wt) [2], 4.36 in the assay with HEK293sieSTAT3(Y640F) [3] and 2.55 in the assay with HEK293sieSTAT3(wt) [4].
For the compound `O=C(Nc1c[nH]nc1-c1nc2ccc(CN3CCOCC3)cc2[nH]1)NC1CC1` [AT9283] (top concentration tested 1000 nM), the drug sensitivity score in the assay with HEK293sieSTAT3(Y640F) [1] is 0; in the assay with HEK293sieSTAT3(wt) [2], 0.75; in the assay with HEK293sieSTAT3(Y640F) [3], 0.91; in the assay on HEK293sieSTAT3(wt) [4] it was 1.49.
For `COc1cc(C(=O)O)ccc1NC(=O)[C@@H]1N[C@@H](CC(C)(C)C)[C@](C#N)(c2ccc(Cl)cc2F)[C@H]1c1cccc(Cl)c1F` [Idasanutlin] (top concentration tested 10000 nM), the drug sensitivity score in the assay with HEK293sieSTAT3(Y640F) [1] turned out to be 0.11; with HEK293sieSTAT3(wt) [2] it was 0; in the assay with HEK293sieSTAT3(Y640F) [3], 4.92; in the assay with HEK293sieSTAT3(wt) [4] it was 3.61.
The like results for `CCN(CC)CCCC(C)Nc1ccnc2cc(Cl)ccc12` (configuration not stated) [Chloroquine] (top concentration tested 100000 nM) were, in that order, 8.17, 15.8, 11 and 13.
The like results for `CC(C)(O)CC(=O)NCCn1ccc2ncnc(Nc3ccc(Oc4cccc(C(F)(F)F)c4)c(Cl)c3)c21` [TAK-285] (top concentration tested 2500 nM) were, in that order, 0, 0, 0 and 0.
As to `COc1cc(OC2CCN(C)CC2)ccc1Nc1ncc2c(n1)n(C1CCCC1)c(=O)n2C` [AZ 3146] (top concentration tested 10000 nM), the drug sensitivity score with HEK293sieSTAT3(Y640F) [1] is 4.52; in the assay on HEK293sieSTAT3(wt) [2], 11.4; in the assay on HEK293sieSTAT3(Y640F) [3], 8.94; in the assay on HEK293sieSTAT3(wt) [4], 11.3.
Regarding `CC(C)(C)C[C@@H]1N[C@@H](C(=O)N[C@H]2CC[C@H](O)CC2)[C@H](c2cccc(Cl)c2F)[C@]12C(=O)Nc1cc(Cl)ccc12` (top concentration tested 10000 nM), the drug sensitivity score was found to be 2.22 in the assay with HEK293sieSTAT3(Y640F) [1], 2.72 in the assay on HEK293sieSTAT3(wt) [2], 3.68 with HEK293sieSTAT3(Y640F) [3] and 4.33 in the assay on HEK293sieSTAT3(wt) [4].
The like results for `Cc1cc(Nc2cc(N3CCN(C)CC3)nc(/C=C/c3ccccc3)n2)n[nH]1` [ENMD-2076] (top concentration tested 10000 nM) were, in that order, 0.61, 5.35, 9.67 and 10.7.
As to `Nc1nc(Nc2ccc3c(c2)CC[C@@H](N2CCCC2)CC3)nn1-c1cc2c(nn1)-c1ccccc1CCC2` [BGB324] (top concentration tested 10000 nM), the drug sensitivity score in the assay on HEK293sieSTAT3(Y640F) [1] was found to be 6.14; with HEK293sieSTAT3(wt) [2], 11.9; in the assay with HEK293sieSTAT3(Y640F) [3] it was 10.2; in the assay on HEK293sieSTAT3(wt) [4], 12.
For `CC(C)C[C@H](NC(=O)[C@H](Cc1ccccc1)NC(=O)c1cnccn1)B(O)O` [Bortezomib] (top concentration tested 1000 nM), the drug sensitivity score is 30.6 with HEK293sieSTAT3(Y640F) [1], 31.7 in the assay on HEK293sieSTAT3(wt) [2], 29.8 with HEK293sieSTAT3(Y640F) [3] and 32.5 with HEK293sieSTAT3(wt) [4].
The like results for `COc1cc(NS(C)(=O)=O)ccc1Nc1c2ccccc2nc2ccccc12` [Amsacrine] (top concentration tested 10000 nM) were, in that order, 6.68, 11.1, 25.2 and 26.9.
For `CNC(=O)c1cc(COc2nnc(Nc3ccc(Cl)cc3)c3ccoc23)ccn1` [Telatinib] (top concentration tested 10000 nM), the drug sensitivity score in the assay on HEK293sieSTAT3(Y640F) [1] was 0; in the assay with HEK293sieSTAT3(wt) [2] it was 2.32; in the assay on HEK293sieSTAT3(Y640F) [3] it was 2.07; in the assay on HEK293sieSTAT3(wt) [4] it was 0.
For the compound `CC(O)(CS(=O)(=O)c1ccc(F)cc1)C(=O)Nc1ccc(C#N)c(C(F)(F)F)c1` (configuration not stated) [Bicalutamide] (top concentration tested 10000 nM), the drug sensitivity score with HEK293sieSTAT3(Y640F) [1] is 0; in the assay on HEK293sieSTAT3(wt) [2], 0; in the assay on HEK293sieSTAT3(Y640F) [3], 3.98; in the assay on HEK293sieSTAT3(wt) [4] it was 4.54.
